The compounds below were run on Utrophin A promoter linked to a luciferase reporter gene (assay: Luciferase reporter assay (murine H2K cells)). Details: Mus musculus, H2K mdx, luciferase level relative to control; H2K/mdx/Utro A reporter cells; compound 10 μM final concentration; read-out: Activity.
Type: cell-based
In short: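 Immortalized mdx mouse H2K myoblasts stably carrying a ~5 kb utrophin A promoter–luciferase construct, kept at 33° C, 10% CO2. After 24 hrs plating, compound added at 10 μM final for 48 hrs; luciferase light output read after in-situ lysis.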
In the case of `COc1ccc(-c2nc3cc(NC(=O)c4ccncc4)ccc3o2)cc1` [Example 134, N-(2-(4-methoxyphenyl)benzo[d]oxazol-5-yl)isonicotinamide], the activity at 10 µM is reported as < 200%. In the case of `COc1ccc(-c2nc3cc(NC(C)=O)ccc3o2)cc1` [Example 135, N-(2-(4-methoxyphenyl)benzo[d]oxazol-5-yl)acetamide], the activity at 10 µM is reported as 301 to 400%. `CCC(=O)Nc1ccc2oc(-c3ccc(OC)cc3)nc2c1` [Example 136, N-(2-(4-methoxyphenyl)benzo[d]oxazol-5-yl)propionamide] gave an activity at 10 µM of 301 to 400%. `CCCC(=O)Nc1ccc2oc(-c3ccc(OC)cc3)nc2c1` [Example 137, N-(2-(4-methoxyphenyl)benzo[d]oxazol-5-yl)butyramide] showed an activity at 10 µM of 201 to 300%. With `CCCCC(=O)Nc1ccc2oc(-c3ccc(OC)cc3)nc2c1` [Example 138, N-(2-(4-methoxyphenyl)benzo[d]oxazol-5-yl)pentanamide] the activity at 10 µM was < 200%. With `COc1ccc(-c2nc3cc(NC(=O)C(C)C)ccc3o2)cc1` [Example 139, N-(2-(4-methoxyphenyl)benzo[d]oxazol-5-yl)isobutyramide] the activity at 10 µM was 201 to 300%. For `COc1ccc(-c2nc3cc(NC(=O)c4ccco4)ccc3o2)cc1` [Example 140, N-(2-(4-methoxyphenyl)benzo[d]oxazol-5-yl)furan-2-carboxamide], the activity at 10 µM was < 200%. In the case of `COc1ccc(-c2nc3cc(NC(=O)c4cccs4)ccc3o2)cc1` [Example 141, N-(2-(4-methoxyphenyl)benzo[d]oxazol-5-yl)thiophene-2-carboxamide], the activity at 10 µM is reported as < 200%. `CCN(CC)c1ccc(-c2nc3cc(C(C)(C)C)ccc3o2)cc1` [Example 142, 4-(5-tert-butylbenzo[d]oxazol-2-yl)-N,N-diethylaniline] was tested, and the activity at 10 µM was 201 to 300%. `CCN(CC)c1ccc(-c2nc3ccccc3o2)cc1` [Example 143, 4-(benzo[d]oxazol-2-yl)-N,N-diethylaniline] showed an activity at 10 µM of 201 to 300%. In the case of `CCN(CC)c1ccc(-c2nc3cc(S(=O)(=O)CC)ccc3o2)cc1` [Example 144, N,N-diethyl-4-(5-(ethylsulfonyl)benzo[d]oxazol-2-yl)aniline], the activity at 10 µM is reported as < 200%. With `CCN(CC)c1ccc(-c2nc3cc(-c4ccccc4)ccc3o2)cc1` [Example 145, N,N-diethyl-4-(5-phenylbenzo[d]oxazol-2-yl)aniline] the activity at 10 µM was < 200%. In the case of `CCN(CC)c1ccc(-c2nc3c(ccc4ccccc43)o2)cc1` [Example 146, N,N-diethyl-4-(naphtho[1,2-d]oxazol-2-yl)aniline], the activity at 10 µM is reported as 201 to 300%. `c1ccc(-c2nc3ccccc3o2)nc1` [Example 147, 2-(pyridin-2-yl)benzo[d]oxazole] was tested, and the activity at 10 µM was < 200%. In the case of `CCC(=O)Nc1ccc2nn(-c3ccc(Cl)cc3)nc2c1` [Example 148, N-(2-(4-chlorophenyl)-2H-benzo[d][1,2,3]triazol-5-yl)propionamide], the activity at 10 µM is reported as > 401%. In the case of `Nc1ccc2oc(-c3ccc(N4CCCC4)cc3)nc2c1` [Example 149, 2-(4-(pyrrolidin-1-yl)phenyl)benzo[d]oxazol-5-amine], the activity at 10 µM is reported as 201 to 300%. `Nc1ccc2oc(-c3ccc(N4CCCCC4)cc3)nc2c1` [Example 150, 2-(4-(piperidin-1-yl)phenyl)benzo[d]oxazol-5-amine] was tested, and the activity at 10 µM was 201 to 300%. For `CN1CCN(c2ccc(-c3nc4cc(N)ccc4o3)cc2)CC1` [Example 151, 2-(4-(4-methylpiperazin-1-yl)phenyl)benzo[d]oxazol-5-amine], the activity at 10 µM was 201 to 300%. For `CCN(CC)c1ccc(-c2nc3cc(C(=O)O)ccc3o2)cc1` [Example 152, 2-(4-(diethylamino)phenyl)benzo[d]oxazole-5-carboxylic acid], the activity at 10 µM was < 200%. For `O=[N+]([O-])c1cnc2oc(-c3ccccc3)nc2c1` [Example 153, 6-nitro-2-phenyloxazolo[5,4-b]pyridine], the activity at 10 µM was < 200%. For `CCCc1nc2cc(N)ccc2o1` [Example 154, 2-propylbenzo[d]oxazol-5-amine], the activity at 10 µM was < 200%. `Nc1ccc2nc(-c3ccccc3)oc2c1` [Example 155, 2-phenylbenzo[d]oxazol-6-amine] showed an activity at 10 µM of 301 to 400%.
